Source: publication PMC9967956, “Efficacy of Trichoderma longibrachiatum Trichogin GA IV Peptaibol analogs against the Black Rot Pathogen Xanthomonas campestris pv. campestris and other Phytopathogenic Bacteria” (Microorganisms, 2023)
Converted amounts (≈) assume the structure as drawn. Where a SMILES comes first, the peptide text is derived from it. [ ]: non-standard residue; d: D form. The star is where a group is joined. Azidoacetyl = [N-]=[N+]=NCC(=O)*; Leu(ol) = CC(C)C[C@H](N)CO; Octanoyl = CCCCCCCC(=O)*; Aib = CC(C)(N)C(=O)O

Columns and labels:
[1] = test system: Xanthomonas campestris pv. campestris strain RC1; test: Growth inhibition assay against Xcc (OD600); settings: LB, 27 °C, 72 h, OD 600 nm, three replicates, two independent experiments
[2] = test system: Xanthomonas campestris pv. campestris; test: MIC and MBC determinations against Xcc; type: cell-based; set-up: key to Bacteriostatic (MIC) / bactericidal (MBC) activity at 0.5 µM / Bacteriostatic (MIC) / bactericidal (MBC) activity at 1 µM / Bacteriostatic (MIC) / bactericidal (MBC) activity at 3 µM / Bacteriostatic (MIC) / bactericidal (MBC) activity at 2 µM: Dashes (-) indicate the absence of bacteriostatic or bactericidal activity; Minimal Inhibitory Concentration (MIC); Minimal Bactericidal Concentration (MBC); MIC and MBC: Minimal Inhibitory Concentration (MIC) and Minimal Bactericidal Concentration (MBC); settings: for MIC: lowest concentration that completely inhibited visible growth, 72 h, tested 3, 2, 1 and 0.5 µM; for Bacteriostatic (MIC) / bactericidal (MBC) activity at 0.5 µM: peptide 0.5 µM; for Bacteriostatic (MIC) / bactericidal (MBC) activity at 0.5 µM / Bacteriostatic (MIC) / bactericidal (MBC) activity at 1 µM / Bacteriostatic (MIC) / bactericidal (MBC) activity at 2 µM / Bacteriostatic (MIC) / bactericidal (MBC) activity at 3 µM: 72 h growth inhibition, then plating on LBA 24 h; for Bacteriostatic (MIC) / bactericidal (MBC) activity at 1 µM: peptide 1 µM; for Bacteriostatic (MIC) / bactericidal (MBC) activity at 2 µM: peptide 2 µM; for Bacteriostatic (MIC) / bactericidal (MBC) activity at 3 µM: peptide 3 µM
Method: Peptaibols were tested at decreasing concentrations (3, 2, 1 and 0.5 µM). Minimal Bactericidal Concentration (MBC) was determined at the end of the incubation period (72 h) by plating, onto LBA plates, 5 µL samples that were collected from each well with no visible growth.

P. oryzae = settings: cited from earlier work

Compound: CCCCCCCC(=O)NC(C)(C)C(=O)N[C@@H](CCCCN)C(=O)N[C@@H](CCCCN)C(=O)N[C@@H](CC(C)C)C(=O)NC(C)(C)C(=O)NCC(=O)N[C@H](C(=O)N[C@H](CO)CC(C)C)[C@@H](C)CC [Peptide 4c] (Octanoyl-[Aib]KKL[Aib]GI[Leu(ol)])
- Inhibition of Xcc growth in vitro ([1]; peptide 3 µM): confirmed the Xcc growth inhibition detected at 15 µM
- Inhibition of Xcc growth in vitro ([1]; peptide 15 µM): completely inhibited
- MIC [2]: 3 µM (≈ 2.86 µg/mL)
- Bacteriostatic (MIC) / bactericidal (MBC) activity at 0.5 µM [2]: -
- Bacteriostatic (MIC) / bactericidal (MBC) activity at 1 µM [2]: -
- Bacteriostatic (MIC) / bactericidal (MBC) activity at 2 µM [2]: -
- Bacteriostatic (MIC) / bactericidal (MBC) activity at 3 µM [2]: MIC

Compound: CCCCCCCC(=O)NC(C)(C)C(=O)N[C@@H](CCCCN)C(=O)N[C@@H](CC(C)C)C(=O)NC(C)(C)C(=O)N[C@@H](CCCCN)C(=O)N[C@@H](CCCCN)C(=O)N[C@@H](CC(C)C)C(=O)NC(C)(C)C(=O)NCC(=O)N[C@H](C(=O)N[C@@H](CC(C)C)C(N)=O)[C@@H](C)CC [Peptide 24r] (Octanoyl-[Aib]KL[Aib]KKL[Aib]GIL-NH2)
- Inhibition of Xcc growth in vitro ([1]; peptide 3 µM): confirmed the Xcc growth inhibition detected at 15 µM
- Inhibition of Xcc growth in vitro ([1]; peptide 15 µM): complete inhibition
- MIC [2]: 1 µM (≈ 1.29 µg/mL)
- Bacteriostatic (MIC) / bactericidal (MBC) activity at 0.5 µM [2]: -
- Bacteriostatic (MIC) / bactericidal (MBC) activity at 1 µM [2]: MIC

Compound: CCCCCCCC(=O)NC(C)(C)C(=O)N[C@@H](CCCCN)C(=O)N[C@@H](CC(C)C)C(=O)NC(C)(C)C(=O)NCC(=O)NCC(=O)N[C@@H](CC(C)C)C(=O)NC(C)(C)C(=O)NCC(=O)N[C@H](C(=O)N[C@H](CO)CC(C)C)[C@@H](C)CC [Peptide 2] (Octanoyl-[Aib]KL[Aib]GGL[Aib]GI[Leu(ol)])
- Inhibition of Xcc growth in vitro ([1]; peptide 3 µM): complete inhibition
- Inhibition of Xcc growth in vitro ([1]; peptide 15 µM): completely inhibit
- MIC [2]: 3 µM (≈ 3.41 µg/mL)
- Bacteriostatic (MIC) / bactericidal (MBC) activity at 0.5 µM [2]: -
- Bacteriostatic (MIC) / bactericidal (MBC) activity at 1 µM [2]: -
- Bacteriostatic (MIC) / bactericidal (MBC) activity at 2 µM [2]: -
- Bacteriostatic (MIC) / bactericidal (MBC) activity at 3 µM [2]: MIC

Compound: CCCCCCCC(=O)NC(C)(C)C(=O)N[C@@H](CCCCN)C(=O)N[C@@H](CC(C)C)C(=O)NC(C)(C)C(=O)N[C@@H](CCCCN)C(=O)N[C@@H](CCCCN)C(=O)N[C@@H](CC(C)C)C(=O)NC(C)(C)C(=O)NCC(=O)N[C@H](C(=O)N[C@H](CO)CC(C)C)[C@@H](C)CC [Peptide 24] (Octanoyl-[Aib]KL[Aib]KKL[Aib]GI[Leu(ol)])
- Inhibition of Xcc growth in vitro ([1]; peptide 3 µM): complete inhibition
- MIC [2]: 1 µM (≈ 1.28 µg/mL)
- Bacteriostatic (MIC) / bactericidal (MBC) activity at 0.5 µM [2]: -
- Bacteriostatic (MIC) / bactericidal (MBC) activity at 1 µM [2]: MIC

Compound: CCCCCCCC(=O)NC(C)(C)C(=O)N[C@@H](CCCCN)C(=O)N[C@@H](CC(C)C)C(=O)NC(C)(C)C(=O)N[C@@H](CCCCN)C(=O)N[C@@H](CCCCN)C(=O)N[C@@H](CC(C)C)C(=O)NC(C)(C)C(=O)N[C@@H](CCCCN)C(=O)N[C@H](C(=O)N[C@H](CO)CC(C)C)[C@@H](C)CC [Peptide 23] (Octanoyl-[Aib]KL[Aib]KKL[Aib]KI[Leu(ol)])
- Inhibition of Xcc growth in vitro ([1]; peptide 3 µM): complete inhibition
- MIC [2]: 1 µM (≈ 1.35 µg/mL)
- Bacteriostatic (MIC) / bactericidal (MBC) activity at 0.5 µM [2]: -

Compound: CCCCCCCC(=O)NC(C)(C)C(=O)NCC(=O)N[C@@H](CC(C)C)C(=O)NC(C)(C)C(=O)NCC(=O)N[C@@H](CCCCN)C(=O)N[C@@H](CC(C)C)C(=O)NC(C)(C)C(=O)NCC(=O)N[C@H](C(=O)N[C@H](CO)CC(C)C)[C@@H](C)CC [Peptide 22]
- Inhibition of Xcc growth in vitro ([1]; peptide 3 µM): complete inhibition
- MIC [2]: 2 µM (≈ 2.28 µg/mL)
- Bacteriostatic (MIC) / bactericidal (MBC) activity at 0.5 µM [2]: -
- Bacteriostatic (MIC) / bactericidal (MBC) activity at 1 µM [2]: -
- Bacteriostatic (MIC) / bactericidal (MBC) activity at 3 µM [2]: -

Compound: nOct-Aib-Gly-Leu-Aib-Lys-Aib-Leu-Aib-Gly-Ile-Lol [Peptide 6]
- Inhibition of P. oryzae (P. oryzae): strain-dependent inhibition
- Inhibition of Xcc growth in vitro ([1]; peptide 3 µM): partial growth inhibition effect
- Inhibition of Xcc growth in vitro ([1]; peptide 15 µM): completely inhibit

Compound: nOct-Aib-Gly-Leu-Aib-Lys-Gly-Leu-Aib-Gly-Ile-Lol [Peptide 3, full-length synthetic analog of trichogin GA IV, used as negative control]
- Inhibition of Xcc growth in vitro ([1]; peptide 15 µM): inactive
- MIC [2]: neither bacteriostatic nor bactericidal activity
- Bacteriostatic (MIC) / bactericidal (MBC) activity at 0.5 µM [2]: -
- Bacteriostatic (MIC) / bactericidal (MBC) activity at 1 µM [2]: -
- Bacteriostatic (MIC) / bactericidal (MBC) activity at 2 µM [2]: -
- Bacteriostatic (MIC) / bactericidal (MBC) activity at 3 µM [2]: -

Compound: CC[C@H](C)[C@H](NC(=O)[C@H](CCCCN)NC(=O)C(C)(C)NC(=O)[C@H](CC(C)C)NC(=O)[C@H](CCCCN)NC(=O)[C@H](CCCCN)NC(=O)C(C)(C)NC(=O)[C@H](CC(C)C)NC(=O)[C@H](CCCCN)NC(=O)C(C)(C)NC(=O)CN=[N+]=[N-])C(=O)N[C@H](CO)CC(C)C [Peptide 9] (Azidoacetyl-[Aib]KL[Aib]KKL[Aib]KI[Leu(ol)])
- Inhibition of Xcc growth in vitro ([1]; peptide 3 µM): complete inhibition
- MIC [2]: 1 µM (≈ 1.31 µg/mL)
- Bacteriostatic (MIC) / bactericidal (MBC) activity at 0.5 µM [2]: -
- Bacteriostatic (MIC) / bactericidal (MBC) activity at 1 µM [2]: MIC

Compound: CCCCCCCC(=O)NC(C)(C)C(=O)N[C@@H](CCCCN)C(=O)N[C@@H](CC(C)C)C(=O)NC(C)(C)C(=O)N[C@@H](CCCCN)C(=O)NCC(=O)N[C@@H](CC(C)C)C(=O)NC(C)(C)C(=O)N[C@@H](CCCCN)C(=O)N[C@H](C(=O)N[C@@H](CC(C)C)C(N)=O)[C@@H](C)CC [Peptide 5r] (Octanoyl-[Aib]KL[Aib]KGL[Aib]KIL-NH2)
- Inhibition of Xcc growth in vitro ([1]; peptide 3 µM): confirmed the Xcc growth inhibition detected at 15 µM
- Inhibition of Xcc growth in vitro ([1]; peptide 15 µM): complete inhibition
- MIC [2]: 2 µM (≈ 2.59 µg/mL)
- Bacteriostatic (MIC) / bactericidal (MBC) activity at 0.5 µM [2]: -
- Bacteriostatic (MIC) / bactericidal (MBC) activity at 1 µM [2]: -
